Molecular target: T1, FXR ligand binding domain (GST-FXR LBD fusion protein, human FXR aa 193-473) (Homo sapiens, UniProt Q96RI1)
T1 construct: fused on or other part: Glutathione-S-transferase (GST) fused N-terminally to the FXR LBD, used to capture the protein on glutathione SPA beads
T1 sequence (Q96RI1 211-486 limits assumed): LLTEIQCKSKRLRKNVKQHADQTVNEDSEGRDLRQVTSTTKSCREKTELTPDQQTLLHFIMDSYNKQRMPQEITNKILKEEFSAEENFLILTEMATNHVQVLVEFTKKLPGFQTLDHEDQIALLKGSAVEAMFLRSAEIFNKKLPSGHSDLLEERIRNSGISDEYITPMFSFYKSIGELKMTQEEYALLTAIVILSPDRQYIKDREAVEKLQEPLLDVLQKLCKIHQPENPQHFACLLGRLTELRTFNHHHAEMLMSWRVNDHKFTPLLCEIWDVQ
Experiment: Radioligand binding assay (scintillation proximity, radioligand displacement)
Conditions: 40 nM GST-FXR LBD on SPA beads, test compound 6×10^−9 M to 2.5×10^−5 M, read-out: h-IC50 Binding
Procedure, shortened: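 40 nM GST-FXR LBD, E. coli-expressed, bound to glutathione yttrium silicate SPA beads in 50 mM Hepes pH 7.4, 10 mM NaCl, 5 mM MgCl2, 0.01% CHAPS. Test compounds displace radioligand (e.g. 20 nM benzimidazolyl-acetamide ligand); bound ligand measured by scintillation proximity counting.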

For `Cc1cc(Cl)ccc1-c1nc2cc(F)c(F)cc2n1C(COc1c(F)cc(C(=O)O)cc1F)C1CCCCC1` (single isomer, unassigned; (-)) [Example 125, (−)-4-{2-[2-(4-Chloro-2-methyl-phenyl)-5,6-difluoro-benzoimidazol-1-yl]-2-cyclohexyl-ethoxy}-3,5-difluoro-benzoic acid], which IC50 is on record?
Its IC50 is 10 nM.

For `O=C(O)c1cc(F)c(OCC(C2CCCCCC2)n2c(-c3ccc(Cl)cc3)nc3cc(F)c(F)cc32)c(F)c1` (single isomer, unassigned; (-)) [Example 132, (−)-4-{2-[2-(4-Chloro-phenyl)-5,6-difluoro-benzoimidazol-1-yl]-2-cycloheptyl-ethoxy}-3,5-difluoro-benzoic acid], which IC50 is on record?
Its IC50 is 10 nM.

For `O=C(O)c1ccc(CCC(C2CCCCC2)n2c(-c3ccccc3)nc3cc(F)c(F)cc32)cc1` (single isomer, unassigned; (-)) [Example 143, (−)-4-[3-Cyclohexyl-3-(5,6-difluoro-2-phenyl-benzoimidazol-1-yl)-propyl]-benzoic acid], which IC50 is on record?
The IC50 was 3 nM.

How did the IC50 turn out when `COc1ccc(-c2nc3cc(F)c(F)cc3n2C(CCc2ccc(C(=O)O)cc2)C2CCCCC2)c(OC)n1` (single isomer, unassigned; (-)) [Example 146, (−)-4-{3-Cyclohexyl-3-[2-(2,6-dimethoxy-pyridin-3-yl)-5,6-difluoro-benzoimidazol-1-yl]-propyl}-benzoic acid] was run?
The IC50 was 1 nM.

With `Fc1cc2nc(-c3ccc(Cl)cc3)n([C@H](COCC3CCCCC3)C3CCCCC3)c2cc1F` [Example 3, (+)-2-(4-Chloro-phenyl)-1-((S)-1-cyclohexyl-2-cyclohexylmethoxy-ethyl)-5,6-difluoro-1H-benzoimidazole] as the compound, how does the IC50 read?
The IC50 was 32100 nM.

`O=C(O)c1ccc(OCC(C2CCCCC2)n2c(-c3ccc(Cl)cc3)nc3cc(F)c(F)cc32)cc1` (stereo not shown) [Example 4, 4-{2-[2-(4-Chloro-phenyl)-5,6-difluoro-benzoimidazol-1-yl]-2-cyclohexyl-ethoxy}-benzoic acid] was tested. Which IC50 did it give?
The IC50 was 70 nM.

For `Cc1cc(C(=O)O)ccc1OCC(C1CCCCC1)n1c(-c2ccc(Cl)cc2)nc2cc(F)c(F)cc21` (stereo not shown) [Example 11, 4-{2-[2-(4-Chloro-phenyl)-5,6-difluoro-benzoimidazol-1-yl]-2-cyclohexyl-ethoxy}-3-methyl-benzoic acid], which IC50 is on record?
The IC50 was 20 nM.

`O=C(O)c1ccccc1OCC(C1CCCCC1)n1c(-c2ccc(Cl)cc2)nc2cc(F)c(F)cc21` (stereo not shown) [Example 14, 2-{2-[2-(4-Chloro-phenyl)-5,6-difluoro-benzoimidazol-1-yl]-2-cyclohexyl-ethoxy}-benzoic acid] was tested. Which IC50 did it give?
The IC50 was 2000 nM.

How did the IC50 turn out when `O=C(O)c1cccc(OCC(C2CCCCC2)n2c(-c3ccc(Cl)cc3)nc3cc(F)c(F)cc32)c1` (stereo not shown) [Example 15, 3-{2-[2-(4-Chloro-phenyl)-5,6-difluoro-benzoimidazol-1-yl]-2-cyclohexyl-ethoxy}-benzoic acid] was run?
Its IC50 is 70 nM.

How did the IC50 turn out when `Cc1ccc(C(=O)O)cc1OCC(C1CCCCC1)n1c(-c2ccc(Cl)cc2)nc2cc(F)c(F)cc21` (stereo not shown) [Example 16, 3-{2-[2-(4-Chloro-phenyl)-5,6-difluoro-benzoimidazol-1-yl]-2-cyclohexyl-ethoxy}-4-methyl-benzoic acid] was run?
Its IC50 is 200 nM.

Which IC50 does the source give for `Cc1c(OCC(C2CCCCC2)n2c(-c3ccc(Cl)cc3)nc3cc(F)c(F)cc32)cccc1C(=O)O` (stereo not shown) [Example 17, 3-{2-[2-(4-Chloro-phenyl)-5,6-difluoro-benzoimidazol-1-yl]-2-cyclohexyl-ethoxy}-2-methyl-benzoic acid] here?
Its IC50 is 200 nM.

`O=C(O)c1ccc(OCC(C2CCCCC2)n2c(-c3ccc(Cl)cc3)nc3cc(F)c(F)cc32)cn1` (stereo not shown) [Example 18, 5-{2-[2-(4-Chloro-phenyl)-5,6-difluoro-benzoimidazol-1-yl]-2-cyclohexyl-ethoxy}-pyridine-2-carboxylic acid] was tested. Which IC50 did it give?
Its IC50 is 1300 nM.

How did the IC50 turn out when `O=C(O)c1ccc(OCC(C2CCCCC2)n2c(-c3ccc(Cl)cc3)nc3cc(F)c(F)cc32)nc1` (stereo not shown) [Example 19, 6-{2-[2-(4-Chloro-phenyl)-5,6-difluoro-benzoimidazol-1-yl]-2-cyclohexyl-ethoxy}-nicotinic acid] was run?
Its IC50 is 50 nM.

How did the IC50 turn out when `O=C(O)c1cnc(OCC(C2CCCCC2)n2c(-c3ccc(Cl)cc3)nc3cc(F)c(F)cc32)c(Cl)c1` (stereo not shown) [Example 22, 5-Chloro-6-{2-[2-(4-chloro-phenyl)-5,6-difluoro-benzoimidazol-1-yl]-2-cyclohexyl-ethoxy}-nicotinic acid] was run?
Its IC50 is 30 nM.

For `Cc1nc(C(=O)O)ncc1OCC(C1CCCCC1)n1c(-c2ccc(Cl)cc2)nc2cc(F)c(F)cc21` (stereo not shown) [Example 25, 5-{2-[2-(4-Chloro-phenyl)-5,6-difluoro-benzoimidazol-1-yl]-2-cyclohexyl-ethoxy}-4-methyl-pyrimidine-2-carboxylic acid], which IC50 is on record?
The IC50 was 800 nM.

`O=C(O)c1cnc(OCC(C2CCCCC2)n2c(-c3ccc(Cl)cc3)nc3cc(F)c(F)cc32)c2ccsc12` (stereo not shown) [Example 26, 4-{2-[2-(4-Chloro-phenyl)-5,6-difluoro-benzoimidazol-1-yl]-2-cyclohexyl-ethoxy}-thieno[3,2-c]pyridine-7-carboxylic acid] was tested. Which IC50 did it give?
The IC50 was 20 nM.

Which IC50 does the source give for `Fc1cc2nc(-c3ccc(Cl)cc3)n(C(COc3ccccn3)C3CCCCC3)c2cc1F` (stereo not shown) [Example 29, 2-(4-Chloro-phenyl)-1-[1-cyclohexyl-2-(pyridin-2-yloxy)-ethyl]-5,6-difluoro-1H-benzoimidazole] here?
The IC50 was 200 nM.

With `O=C(O)c1cccc(OCC(C2CCCCC2)n2c(-c3ccc(Cl)cc3)nc3cc(F)c(F)cc32)n1` (stereo not shown) [Example 30, 6-{2-[2-(4-Chloro-phenyl)-5,6-difluoro-benzoimidazol-1-yl]-2-cyclohexyl-ethoxy}-pyridine-2-carboxylic acid] as the compound, how does the IC50 read?
Its IC50 is 500 nM.

For `COc1cc(C(=O)O)cc(OCC(C2CCCCC2)n2c(-c3ccc(Cl)cc3)nc3cc(F)c(F)cc32)n1` (stereo not shown) [Example 31, 2-{2-[2-(4-Chloro-phenyl)-5,6-difluoro-benzoimidazol-1-yl]-2-cyclohexyl-ethoxy}-6-methoxy-isonicotinic acid], which IC50 is on record?
The IC50 was 600 nM.

How did the IC50 turn out when `O=C(O)c1ccc(OCC(C2CCCCC2)n2c(-c3ccc(Cl)cc3)nc3ccccc32)cc1` (stereo not shown) [Example 32, 4-{2-[2-(4-Chloro-phenyl)-benzoimidazol-1-yl]-2-cyclohexyl-ethoxy}-benzoic acid] was run?
The IC50 was 1000 nM.

Which IC50 does the source give for `O=C(O)c1ccc(OCC(C2CCCCC2)n2c(-c3ccc(Cl)cc3)nc3ccccc32)c(F)c1` (stereo not shown) [Example 33, 4-{2-[2-(4-Chloro-phenyl)-benzoimidazol-1-yl]-2-cyclohexyl-ethoxy}-3-fluoro-benzoic acid] here?
The IC50 was 500 nM.

Which IC50 does the source give for `Fc1cc2nc(-c3ccc(Cl)cc3)n(C(COc3ccccc3F)C3CCCCC3)c2cc1F` (stereo not shown) [Example 34, 2-(4-Chloro-phenyl)-1-[1-cyclohexyl-2-(2-fluoro-phenoxy)-ethyl]-5,6-difluoro-1H-benzoimidazole] here?
The IC50 was 40 nM.

For `Fc1cc2nc(-c3ccc(Cl)cc3)n(C(COc3cccnc3)C3CCCCC3)c2cc1F` (stereo not shown) [Example 35, 2-(4-Chloro-phenyl)-1-[1-cyclohexyl-2-(pyridin-3-yloxy)-ethyl]-5,6-difluoro-1H-benzoimidazole], which IC50 is on record?
The IC50 was 200 nM.

`Fc1cc2nc(-c3ccc(Cl)cc3)n(C(COc3ccncc3)C3CCCCC3)c2cc1F` (stereo not shown) [Example 36, 2-(4-Chloro-phenyl)-1-[1-cyclohexyl-2-(pyridin-4-yloxy)-ethyl]-5,6-difluoro-1H-benzoimidazole] was tested. Which IC50 did it give?
Its IC50 is 90 nM.

How did the IC50 turn out when `O=C(O)c1ccnc(OCC(C2CCCCC2)n2c(-c3ccc(Cl)cc3)nc3cc(F)c(F)cc32)c1` (stereo not shown) [Example 37, 2-{2-[2-(4-Chloro-phenyl)-5,6-difluoro-benzoimidazol-1-yl]-2-cyclohexyl-ethoxy}-isonicotinic acid] was run?
Its IC50 is 400 nM.

Which IC50 does the source give for `Fc1cc2nc(-c3ccc(Cl)cc3)n(C(COc3ccccc3)C3CCCCC3)c2cc1F` (stereo not shown) [Example 38, 2-(4-Chloro-phenyl)-1-(1-cyclohexyl-2-phenoxy-ethyl)-5,6-difluoro-1H-benzoimidazole] here?
The IC50 was 100 nM.

For `O=C(O)c1ccc(OCC(C2CCCCC2)n2c(-c3ccc(Cl)cc3)nc3cc(F)c(F)cc32)c(C(F)(F)F)c1` (stereo not shown) [Example 39, 4-{2-[2-(4-Chloro-phenyl)-5,6-difluoro-benzoimidazol-1-yl]-2-cyclohexyl-ethoxy}-3-trifluoromethyl-benzoic acid], which IC50 is on record?
Its IC50 is 30 nM.

With `O=C(O)c1c(F)cc(OCC(C2CCCCC2)n2c(-c3ccc(Cl)cc3)nc3cc(F)c(F)cc32)cc1F` (stereo not shown) [Example 42, 4-{2-[2-(4-Chloro-phenyl)-5,6-difluoro-benzoimidazol-1-yl]-2-cyclohexyl-ethoxy}-2,6-difluoro-benzoic acid] as the compound, how does the IC50 read?
The IC50 was 200 nM.

For `O=C(O)COc1ccc(OCC(C2CCCCC2)n2c(-c3ccc(Cl)cc3)nc3cc(F)c(F)cc32)nc1` (stereo not shown) [Example 45, (6-{2-[2-(4-Chloro-phenyl)-5,6-difluoro-benzoimidazol-1-yl]-2-cyclohexyl-ethoxy}-pyridin-3-yloxy)-acetic acid], which IC50 is on record?
The IC50 was 20 nM.

Same assay, conditions: h-IC50 Binding, 40 nM GST-FXR LBD on SPA beads, test compound 6×10^−9 M to 2.5×10^−5 M

With `O=C(O)c1ccc(OCC(C2CCCCC2)n2c(-c3ccc(Cl)cc3)nc3cc(F)c(F)cc32)c(F)c1` (stereo not shown) [Example 7, 4-{2-[2-(4-Chloro-phenyl)-5,6-difluoro-benzoimidazol-1-yl]-2-cyclohexyl-ethoxy}-3-fluorobenzoic acid] as the compound, how does the IC50 read?
Its IC50 is 20 nM.

`O=C(O)c1ccc(OCC(C2CCCCC2)n2c(-c3ccc(Cl)cc3)nc3cc(F)c(F)cc32)c(Cl)c1` (stereo not shown) [Example 10, 3-Chloro-4-{2-[2-(4-chloro-phenyl)-5,6-difluoro-benzoimidazol-1-yl]-2-cyclohexyl-ethoxy}-benzoic acid] was tested. Which IC50 did it give?
Its IC50 is 30 nM.

Source: patent publication US8088930B2, “Benzimidazole derivatives” (Hoffmann-La Roche Inc., priority 2008, dated 2012)
